Laboratory results taken from ChEMBL document CHEMBL1201862, “PubChem BioAssay data set” (2004).
The source made the active and inactive calls.

What was measured:
[1] = inhibitors of firefly luciferase expression or activity, dose response, H4 neuroglioma cells, luminescence (AID 1990); type: functional, cell-based
[2] = Luminescence Cell-Based Dose Response HTS to Identify Inhibitors of 5'UTR Stem-Loop Driven Prion Protein mRNA Translation in H4 Neuroglioblastoma Cells. [Related pubchem assays: 1827 (Project Summary), 1813 (Primary HTS)]; type: functional
[3] = inhibitors of SNCA 5'UTR-driven reporter translation, confirmation, H4 neuroglioma cells, luminescence (AID 1988); type: functional, cell-based
[4] = inhibitors of intracellular T. cruzi replication, confirmation, NIH3T3 host cells, beta-gal luminescence (AID 2044); type: functional, cell-based;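 note: intracellular parasites grown in NIH/3T3 mouse fibroblasts as host cells; luminescent beta-galactosidase reporter signal from transgenic T. cruzi replicating inside host cells; inhibitors lower the luminescence signal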
[5] = cytotoxicity toward NIH3T3 fibroblasts, dose response, counter-screen, cell-based, ATP luminescence, mouse fibroblasts (AID 2010); type: functional;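 note: cells exposed to compound for about 90 hours before reading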
[6] = Shn3 3'UTR reporter inhibitors, dose response, cell-based, Clone20 osteoblasts, firefly luciferase, cherry-picked (AID 624132); type: functional;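 note: firefly luciferase luminescence from reporter carrying the Shn3 3'UTR in osteoblasts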
[7] = HepG2 cell cytotoxicity, dose response, cytotoxicity control for Shn3 inhibitor project, CellTiter-Glo, cherry-picked (AID 624134); type: functional, cell-based
[8] = control 3'UTR Renilla luciferase suppression, dose response, counter-screen for Shn3 inhibitor project, cell-based, Clone20-Shn3RL, cherry-picked (AID 624133); type: functional
[9] = HEK293T cytotoxicity, dose response, cytotoxicity control for miR-122 modulator project, cell-based, inhibitor set, cherry-pick, set 2 (AID 720697); type: functional
[10] = HEK293T cytotoxicity, dose response, cytotoxicity control for miR-122 modulator project, cell-based, activator set, cherry-pick (AID 720690); type: functional;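 note: HEK293T human cells scored for general mammalian cytotoxicity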
[11] = target: T1, COUP transcription factor 2 (Homo sapiens, UniProt P24468); test: Luminescence-based cell-based high throughput dose response assay to identify inhibitors of COUP-TFII (NR2F2).; type: functional;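 note: HEK293 cells transiently cotransfected with COUP-TFII expression vector and reporter; luciferase reporter luminescence driven by COUP-TFII from the pX2-168 reporter plasmid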
T1 sequence (P24468 whole entry): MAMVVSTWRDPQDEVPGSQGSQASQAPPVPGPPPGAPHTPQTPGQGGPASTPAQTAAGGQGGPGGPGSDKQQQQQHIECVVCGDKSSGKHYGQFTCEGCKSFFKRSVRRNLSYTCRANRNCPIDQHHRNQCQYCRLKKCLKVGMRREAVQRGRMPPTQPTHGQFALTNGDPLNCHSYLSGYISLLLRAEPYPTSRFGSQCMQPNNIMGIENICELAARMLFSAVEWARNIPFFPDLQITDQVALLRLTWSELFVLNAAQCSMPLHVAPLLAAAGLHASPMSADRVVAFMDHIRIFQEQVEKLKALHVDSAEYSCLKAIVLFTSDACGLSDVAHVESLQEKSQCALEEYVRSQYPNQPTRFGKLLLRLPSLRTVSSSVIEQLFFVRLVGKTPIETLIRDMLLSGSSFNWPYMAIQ

[12] = target: FAD-linked sulfhydryl oxidase ALR (Homo sapiens, UniProt P55789); test: inhibitors of human ALR sulfhydryl oxidase, dose response, biochemical, H2O2 detection, luminescence, cherry-pick (AID 493248)
Chain of FAD-linked sulfhydryl oxidase ALR (P55789 whole entry, the tested form may be a part): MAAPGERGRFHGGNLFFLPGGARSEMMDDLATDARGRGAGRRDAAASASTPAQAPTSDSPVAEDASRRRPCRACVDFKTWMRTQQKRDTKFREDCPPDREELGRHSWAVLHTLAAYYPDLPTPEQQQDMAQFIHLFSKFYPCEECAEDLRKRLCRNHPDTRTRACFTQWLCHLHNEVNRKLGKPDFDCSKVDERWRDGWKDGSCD

[13] = target: T2, Carboxy-terminal domain RNA polymerase II polypeptide A small phosphatase 1 (Homo sapiens, UniProt Q9GZU7); test: inhibitors of CTDSP1, concentration-response testing, biochemical assay, absorbance-based, actives from ultra-high-throughput screening (AID 540297); type: functional
T2 sequence (Q9GZU7 whole entry): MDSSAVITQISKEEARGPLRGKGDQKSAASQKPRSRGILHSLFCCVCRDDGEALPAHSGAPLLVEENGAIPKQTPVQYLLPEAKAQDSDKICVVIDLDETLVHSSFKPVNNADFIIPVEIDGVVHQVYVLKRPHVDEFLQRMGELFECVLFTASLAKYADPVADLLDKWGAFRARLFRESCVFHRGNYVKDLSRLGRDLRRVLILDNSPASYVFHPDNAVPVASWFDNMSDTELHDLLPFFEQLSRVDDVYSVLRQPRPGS

Caspase-6 = target: T3, Caspase-6 (Homo sapiens, UniProt P55212); test: human caspase-6 inhibitors, dose response, biochemical, VEID-R110 fluorescence, cherry-pick (AID 720632)
T3 sequence (P55212 whole entry): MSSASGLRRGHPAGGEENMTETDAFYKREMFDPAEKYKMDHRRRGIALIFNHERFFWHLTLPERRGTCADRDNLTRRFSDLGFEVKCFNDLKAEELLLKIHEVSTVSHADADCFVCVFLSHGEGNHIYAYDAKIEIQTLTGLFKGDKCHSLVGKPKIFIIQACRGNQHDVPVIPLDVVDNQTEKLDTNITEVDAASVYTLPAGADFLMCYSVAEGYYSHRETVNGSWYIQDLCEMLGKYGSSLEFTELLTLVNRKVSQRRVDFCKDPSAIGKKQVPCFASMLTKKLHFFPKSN

[14] = target: T4, Histone-lysine N-methyltransferase NSD2 (Homo sapiens, UniProt O96028); type: biochemical
T4 sequence (O96028 whole entry): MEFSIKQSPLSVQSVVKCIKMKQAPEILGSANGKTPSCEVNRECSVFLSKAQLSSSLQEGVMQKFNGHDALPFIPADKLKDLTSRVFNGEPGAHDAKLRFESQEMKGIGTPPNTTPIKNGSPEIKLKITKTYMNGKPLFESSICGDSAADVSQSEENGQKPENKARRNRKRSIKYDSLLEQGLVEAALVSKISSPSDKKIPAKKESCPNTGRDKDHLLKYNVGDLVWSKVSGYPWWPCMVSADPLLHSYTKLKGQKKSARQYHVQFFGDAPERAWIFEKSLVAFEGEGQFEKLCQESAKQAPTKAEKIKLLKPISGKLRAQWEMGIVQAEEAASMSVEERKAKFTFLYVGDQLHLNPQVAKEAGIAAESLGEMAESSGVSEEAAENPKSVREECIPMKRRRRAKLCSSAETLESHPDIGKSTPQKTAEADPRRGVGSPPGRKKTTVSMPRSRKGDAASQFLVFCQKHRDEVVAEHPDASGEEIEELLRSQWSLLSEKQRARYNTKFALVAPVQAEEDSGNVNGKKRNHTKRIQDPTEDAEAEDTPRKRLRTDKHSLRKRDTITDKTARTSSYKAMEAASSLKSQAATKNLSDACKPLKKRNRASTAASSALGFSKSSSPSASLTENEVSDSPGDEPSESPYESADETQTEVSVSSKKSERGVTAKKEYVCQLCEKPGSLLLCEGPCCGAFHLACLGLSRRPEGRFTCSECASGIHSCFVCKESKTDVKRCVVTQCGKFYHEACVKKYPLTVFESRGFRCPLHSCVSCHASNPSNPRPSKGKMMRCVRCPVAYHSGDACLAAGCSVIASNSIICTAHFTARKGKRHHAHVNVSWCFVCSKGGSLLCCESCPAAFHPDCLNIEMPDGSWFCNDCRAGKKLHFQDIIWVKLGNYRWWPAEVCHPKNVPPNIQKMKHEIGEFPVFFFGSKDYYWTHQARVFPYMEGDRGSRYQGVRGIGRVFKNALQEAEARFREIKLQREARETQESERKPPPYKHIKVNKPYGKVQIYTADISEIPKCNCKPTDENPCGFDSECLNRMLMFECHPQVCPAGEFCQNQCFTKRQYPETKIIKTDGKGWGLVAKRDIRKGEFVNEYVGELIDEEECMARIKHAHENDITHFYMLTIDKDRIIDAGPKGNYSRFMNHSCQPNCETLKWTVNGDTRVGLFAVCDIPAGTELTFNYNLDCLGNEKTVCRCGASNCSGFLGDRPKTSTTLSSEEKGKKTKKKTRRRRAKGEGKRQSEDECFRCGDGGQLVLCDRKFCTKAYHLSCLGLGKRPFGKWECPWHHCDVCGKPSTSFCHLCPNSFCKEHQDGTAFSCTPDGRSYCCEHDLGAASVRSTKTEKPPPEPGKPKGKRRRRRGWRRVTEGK

fMet-Leu-Phe receptor = target: T5, fMet-Leu-Phe receptor (Homo sapiens, UniProt P21462); test: FPR ligands, dose response (AID 519); type: functional
T5 sequence (P21462 whole entry): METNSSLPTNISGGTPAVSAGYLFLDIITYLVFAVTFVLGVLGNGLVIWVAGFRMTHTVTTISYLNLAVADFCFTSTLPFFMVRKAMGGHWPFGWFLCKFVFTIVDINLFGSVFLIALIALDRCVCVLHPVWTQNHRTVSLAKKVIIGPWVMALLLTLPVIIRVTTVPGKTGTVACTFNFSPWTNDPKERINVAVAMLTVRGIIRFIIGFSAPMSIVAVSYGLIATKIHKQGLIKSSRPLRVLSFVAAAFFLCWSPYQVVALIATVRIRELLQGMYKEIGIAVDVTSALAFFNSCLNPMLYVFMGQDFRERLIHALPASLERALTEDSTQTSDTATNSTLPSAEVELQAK

[15] = microbe, parasite or virus in culture; type: functional; settings: Mycobacterium tuberculosis
[16] = cytotoxicity in HEK-293T cells, dose response, cytotoxicity control for TCR NF-kB inhibitor project, luminescence, T-cell screen hits (AID 489026); type: functional, cell-based;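 note: cells exposed to compound about 14 hours before the viability readout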
Fatty acid synthase [17] = target: T6, Fatty acid synthase (Homo sapiens, UniProt P49327); test: FAS thioesterase domain inhibitors, dose response, biochemical, endpoint fluorescence intensity, uHTS hits (AID 624327); type: functional;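 note: fluorescence from hydrolysis of an O-methyl fluorescein acyl ester substrate by the enzyme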
T6 sequence (P49327 whole entry, the tested form may be a part): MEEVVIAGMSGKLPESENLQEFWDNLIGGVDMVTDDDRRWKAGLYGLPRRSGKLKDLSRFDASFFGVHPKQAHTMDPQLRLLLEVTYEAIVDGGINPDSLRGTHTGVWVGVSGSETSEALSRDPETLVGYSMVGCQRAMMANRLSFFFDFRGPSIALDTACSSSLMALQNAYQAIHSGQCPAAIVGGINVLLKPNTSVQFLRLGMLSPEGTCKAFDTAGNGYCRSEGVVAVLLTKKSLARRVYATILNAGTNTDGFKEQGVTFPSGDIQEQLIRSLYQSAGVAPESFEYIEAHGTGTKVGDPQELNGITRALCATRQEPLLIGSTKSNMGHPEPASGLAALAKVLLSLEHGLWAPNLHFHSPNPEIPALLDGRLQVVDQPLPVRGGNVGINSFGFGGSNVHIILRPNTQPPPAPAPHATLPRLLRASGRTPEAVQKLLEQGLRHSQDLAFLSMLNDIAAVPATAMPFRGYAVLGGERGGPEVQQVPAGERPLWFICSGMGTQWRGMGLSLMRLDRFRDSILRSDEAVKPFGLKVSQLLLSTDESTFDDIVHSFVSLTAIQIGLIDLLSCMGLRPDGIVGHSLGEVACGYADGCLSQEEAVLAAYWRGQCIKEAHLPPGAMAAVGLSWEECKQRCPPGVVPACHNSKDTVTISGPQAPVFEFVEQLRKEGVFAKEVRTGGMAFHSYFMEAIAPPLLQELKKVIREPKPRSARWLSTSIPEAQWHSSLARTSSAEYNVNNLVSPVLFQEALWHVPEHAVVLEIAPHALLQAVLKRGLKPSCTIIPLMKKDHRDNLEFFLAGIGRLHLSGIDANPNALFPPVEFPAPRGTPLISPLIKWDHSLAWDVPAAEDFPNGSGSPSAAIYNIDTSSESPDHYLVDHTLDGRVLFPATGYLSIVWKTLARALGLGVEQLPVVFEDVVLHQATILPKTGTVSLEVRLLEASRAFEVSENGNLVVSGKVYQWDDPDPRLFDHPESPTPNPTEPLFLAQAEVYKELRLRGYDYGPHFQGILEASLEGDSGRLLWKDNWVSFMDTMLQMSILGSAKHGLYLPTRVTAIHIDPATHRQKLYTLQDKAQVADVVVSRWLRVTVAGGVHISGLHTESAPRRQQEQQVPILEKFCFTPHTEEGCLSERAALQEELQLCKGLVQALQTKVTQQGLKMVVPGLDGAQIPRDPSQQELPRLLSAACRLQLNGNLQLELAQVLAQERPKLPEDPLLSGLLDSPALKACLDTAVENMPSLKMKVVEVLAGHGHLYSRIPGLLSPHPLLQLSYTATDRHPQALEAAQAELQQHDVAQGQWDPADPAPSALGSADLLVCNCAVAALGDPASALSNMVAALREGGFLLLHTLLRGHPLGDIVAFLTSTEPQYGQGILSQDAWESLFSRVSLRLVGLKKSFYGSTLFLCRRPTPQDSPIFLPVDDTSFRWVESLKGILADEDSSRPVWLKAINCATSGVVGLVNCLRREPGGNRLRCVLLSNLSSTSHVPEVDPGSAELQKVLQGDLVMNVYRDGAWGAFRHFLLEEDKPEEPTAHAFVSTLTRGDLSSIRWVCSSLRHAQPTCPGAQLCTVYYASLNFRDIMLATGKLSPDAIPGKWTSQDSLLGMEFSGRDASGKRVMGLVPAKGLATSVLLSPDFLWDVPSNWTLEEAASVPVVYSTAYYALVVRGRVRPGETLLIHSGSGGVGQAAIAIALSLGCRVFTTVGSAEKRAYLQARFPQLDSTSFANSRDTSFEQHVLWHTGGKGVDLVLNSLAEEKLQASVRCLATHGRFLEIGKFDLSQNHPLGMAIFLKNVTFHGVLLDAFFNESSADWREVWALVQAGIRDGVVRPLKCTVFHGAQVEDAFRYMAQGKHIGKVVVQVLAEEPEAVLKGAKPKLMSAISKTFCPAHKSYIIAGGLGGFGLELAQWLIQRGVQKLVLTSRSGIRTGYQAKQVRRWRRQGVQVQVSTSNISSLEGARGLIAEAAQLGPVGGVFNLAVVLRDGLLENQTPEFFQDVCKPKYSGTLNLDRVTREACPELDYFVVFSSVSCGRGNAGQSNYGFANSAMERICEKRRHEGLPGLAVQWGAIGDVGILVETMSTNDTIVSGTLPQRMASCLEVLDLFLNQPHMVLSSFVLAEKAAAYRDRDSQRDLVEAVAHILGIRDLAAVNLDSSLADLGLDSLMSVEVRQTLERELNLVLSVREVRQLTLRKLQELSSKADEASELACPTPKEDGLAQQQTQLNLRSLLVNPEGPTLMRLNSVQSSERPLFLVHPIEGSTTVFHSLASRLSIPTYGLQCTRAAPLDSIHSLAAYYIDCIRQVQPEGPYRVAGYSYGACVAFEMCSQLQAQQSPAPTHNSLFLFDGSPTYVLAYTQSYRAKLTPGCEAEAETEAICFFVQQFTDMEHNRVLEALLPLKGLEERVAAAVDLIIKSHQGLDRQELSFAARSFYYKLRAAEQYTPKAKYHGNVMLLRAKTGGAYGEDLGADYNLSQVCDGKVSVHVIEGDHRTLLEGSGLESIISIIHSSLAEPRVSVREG

Fatty acid synthase [18] = target: T6, Fatty acid synthase; test: FAS thioesterase domain inhibitors, dose response, biochemical, kinetic fluorescence intensity (AID 624326); type: functional;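 note: rate of fluorescence rise from hydrolysis of a fluorogenic O-methyl fluorescein ester substrate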
[19] = CEM21 lymphoblast cell cytotoxicity, dose response, cytotoxicity control for viral fusion inhibitor project, CellTiter-Glo luminescence, cherry-picked (AID 652042); type: functional, cell-based;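 note: potency for signal decrease meaning cytotoxicity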
[20] = inhibitors of clade B AD8 Env fusion, dose response, cell-based, cherry-pick (AID 652062); type: functional;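 note: luciferase signal from cell-cell fusion driven by HIV-1 clade B AD8 Env; potency is for inhibitors of fusion seen as a drop in luminescence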
BJ [21] = test: cytotoxicity toward BJ-TERT fibroblasts, dose response, cell-based, RAS-independent, luminescence (AID 1933); type: functional; settings: Homo sapiens
BJ [22] = test: cells; type: functional, cell-based; settings: Homo sapiens
BJ [23] = test: cytotoxicity toward BJ-TERT-LT-ST fibroblasts, dose response, cell-based, RAS-independent, luminescence (AID 1935); type: functional; settings: Homo sapiens;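 note: BJ fibroblasts immortalized with TERT plus LT and ST oncogenes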
[24] = cytotoxicity toward DRD oncogenic fibroblasts, dose response, cell-based, non-viral oncogenic, luminescence (AID 1934); type: functional; settings: Homo sapiens
BJ [25] = test: cytotoxicity toward Ras-transformed BJeLR fibroblasts, dose response, cell-based, alamar blue fluorescence, cherrypicked samples (AID 2631); type: functional; settings: Homo sapiens;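 note: confirmatory dose-response assay in RAS-dependent BJ fibroblasts engineered with TERT, LT and ST, with cytotoxicity read by fluorescence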
[26] = miR-122 activators in hepatoma reporter cells, dose response, cell-based, Huh7 psiCHECK-miR122, Renilla luciferase, cherry-picked (AID 651956); type: functional;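 note: huh7 hepatoma cells stably carrying a psiCHECK-2 miR-122 sensor plasmid; renilla luciferase signal reporting endogenous miR-122 activity after 48 h compound exposure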
Paired box protein Pax-8 = Paired box protein Pax-8 (Homo sapiens, UniProt Q06710); test: inhibitors of PAX8-driven TPO luciferase reporter, dose response, RMG-I cells, cherry-pick (AID 687027); type: functional, cell-based;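 note: luciferase reporter driven by Pax8 target thyroperoxidase promoter measured by SteadyGlo luminescence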
Chain of Paired box protein Pax-8 (Q06710 whole entry): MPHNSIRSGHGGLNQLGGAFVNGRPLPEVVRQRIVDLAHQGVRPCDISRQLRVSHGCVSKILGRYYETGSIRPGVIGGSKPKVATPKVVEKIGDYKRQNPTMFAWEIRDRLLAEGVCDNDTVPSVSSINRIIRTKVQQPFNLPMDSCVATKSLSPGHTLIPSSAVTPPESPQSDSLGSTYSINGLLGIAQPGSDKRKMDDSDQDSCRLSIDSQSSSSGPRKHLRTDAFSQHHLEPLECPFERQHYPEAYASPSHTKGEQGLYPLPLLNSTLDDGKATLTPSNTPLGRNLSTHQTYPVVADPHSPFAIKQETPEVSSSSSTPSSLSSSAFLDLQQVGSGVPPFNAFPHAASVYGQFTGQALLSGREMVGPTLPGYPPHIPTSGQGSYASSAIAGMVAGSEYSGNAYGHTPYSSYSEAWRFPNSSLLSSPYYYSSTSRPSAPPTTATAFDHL

[27] = non-specific cell cytotoxicity, dose response, cytotoxicity control for PAX8 inhibitor project, plate reader, dry powder samples (AID 743021); type: functional, cell-based

N#Cc1ccc(NC(=O)Nc2ccc(Oc3ccc(NC(=O)Nc4ccc(C#N)cc4)cc3)cc2)cc1
EC50 [1]: > 120 µM (not active)
EC50 [2]: 10.1 µM (active)
EC50 [3]: 8.67 µM (active)
EC50 [4]: 1.01 µM (active)
EC50 [5]: > 60 µM (not active)
AC50 [6]: 2.68 µM (active)
AC50 [7]: 6.46 µM (active)
AC50 [8]: 13.1 µM (active)
AC50 [9]: 5.02 µM (active)
AC50 [10]: 6.66 µM (active)

CCOC(=O)N1CCC(NC(=O)C2CCCN(Cc3nc(-c4ccc(CC)cc4)oc3C)C2)CC1 (configuration not stated)
IC50 [11]: 9.26 µM (active)

C=CCc1cc(/C=C/c2nc(O)c([N+](=O)[O-])c(O)n2)cc(OC)c1O
AC50 [12]: 0.469 µM (active)
IC50 [13]: 19.3 µM (active)
AC50 (Caspase-6): 9.31 µM (active)
AC50 [14]: > 20 µM (inactive)

CCOc1ccccc1NC(=O)CSc1nccn1-c1ccccc1
Ki (fMet-Leu-Phe receptor): > 66.7 µM (inactive)

CC1Cc2cc(-c3csc(NC(=O)Cc4cccs4)n3)ccc2N1S(C)(=O)=O (configuration not stated)
CC50 [15]: > 40 µM (active)
IC50 [16]: 38 µM (inactive)
IC50 (Fatty acid synthase [17]): 14.1 µM (active)
IC50 (Fatty acid synthase [18]): 7.01 µM (active)
AC50 [19]: 54.5 µM (active)
AC50 [20]: 5.65 µM (active)
IC50 [11]: 3.11 µM (active)

O=C1Nc2ccccc2/C1=C1/SC(=S)N(CC2CCCO2)C1=O (configuration not stated)
Ki (fMet-Leu-Phe receptor): > 66.7 µM (inactive)

COc1ccccc1C1C(C(=O)c2ccccc2)=C(O)C(=O)N1CC(C)O (configuration not stated)
Ki (fMet-Leu-Phe receptor): 24.6 µM (inactive)

CCOc1cc(C(=O)O)ccc1OCCOc1ccccc1
AC50 (Caspase-6): 34 µM (active)

Cc1onc(C(=O)N2CCN(C(c3ccccc3)c3ccccc3)CC2)c1[N+](=O)[O-]
EC50 (BJ [21]): 0.659 µM (inconclusive)
EC50 (BJ [22]): 5.65 µM (active)
EC50 (BJ [23]): > 150 µM (not active)
EC50 [24]: 4.77 µM (active)
EC50 (BJ [25]): 6.63 µM (active)
AC50 [26]: 66.8 µM (active)
AC50 (Paired box protein Pax-8): 5.28 µM (active)
AC50 [9]: 10.8 µM (active)
AC50 [10]: 3.14 µM (active)
AC50 [27]: 3.3 µM (active)

CCCC(=O)Nc1ccc2c(c1)C(=O)N(C)[C@@H]1CC[C@H](CC(=O)Nc3cn(C)nc3C)O[C@@H]1CO2
AC50 [9]: 0.499 µM (active)
